Results published in US20210315921A1, “Compounds and Methods for Modifying iAge” (Edifice Health, Inc,, priority 2020, published 2021).

B1: MIG: recombinant mouse MIG (R&D systems, catalog number 492-MM), monokine induced by gamma interferon (protein, UniProt P18340 22-126, looked up)
C-X-C motif chemokine 9: TLVIRNARCSCISTSRGTIHYKSLKDLKQFAPSPNCNKTEIIATLKNGDQTCLDPDSANVKKLMKEWEKKISQKKKQKRGKKHQKNMKNRKPKTPQSRRRSRKTT

Legend:
estrogen levels = conditions: while raising testosterone levels; cited from earlier work
Mouse thoracic aortas = experiment: Acetylcholine relaxation of mouse thoracic aortic rings after exposure to MIG (wire myograph); conditions: mouse thoracic aortic sections, precontracted with U46619, increasing concentrations of recombinant mouse MIG
Method: Mouse thoracic aortas were carefully dissected, and vessels were cut into small rings and mounted on an isometric wire myograph chambers (Danish Myo Technology) and subjected to a normalization protocol. Following normalization, the vessels were incubated with either PBS or different concentrations of recombinant mouse MIG (R&D systems, catalog number 492-MM). A concentration-dependent contraction curve was created by accumulative application of the prostaglandin agonist U46619. Subsequently, concentration-dependent relaxation curves of Acetylcholine were conducted on these vessels and percent relaxation calculated for each dose.

Molecule	reduction of estrogen levels (estrogen levels) [%]	effect on vasorelaxation to Acetylcholine (Mouse thoracic aortas)
N#Cc1ccc(C(c2ccc(C#N)cc2)n2cncn2)cc1 [Letrozole]	98	–
B1	–	dose-dependent effect on vasorelaxation
